Test results taken from US5587479A, “Basic derivatives of glutamic acid and aspartic acid as gastrin or cholecystokinin antagonists” (priority 1992, dated 1996).
Converted amounts (≈) assume the structure as drawn. Read-outs that look alike come from different tables or passages of the source.

Assays:
[1] = test system: guinea-pig ureters; assay: Antispastic activity in vitro: spontaneous motility of guinea-pig ureters; conditions: for IC50: Cavia porcellus
Source text: The isotonic contractions were detected by means of a force transducer and recorded. […] A given concentration of the product under test was then introduced into the bath and left in contact with the prepared specimen for five minutes, after which the ureter was washed until its own spontaneous activity was re-established.

[2] = test system: mouse; assay: Anxiolytic activity in the mouse, Black and White Box test; type: in vivo; conditions: for TOTAL MOV.: five minutes; for anxiolytic activity in the Black and White Box test (in words): IP
Description: In order to confirm the hypothesis that the potent activity of some of the compounds of the invention against central CCK-B may be correlated with a possible anxiolytic activity, this potential activity was evaluated in the mouse with the use of the "Black and White Box test". This experimental model, which was carried out according to Costall et al. [Pharm. Biochem. Behav. 32 (1989), 777-785] used a box with dimensions of 45×21×21 (h) cm. divided into two compartments which communicated with each other by means of a 13×5 cm hole. The smaller compartment (1/3 of the total area) had black walls, whereas the larger had transparent walls and was illuminated by a lamp which was placed 20 cm above the box and supplied light at 20 W. Under the floor was an activity meter which registered the movements performed by the animal in the individual compartments. The experiment was started by placing the animal in the centre of the illuminated box; as well at its movements, the time which the animal spent in the dark and in the light and the number of times it moved between the 2 compartments were recorded for five minutes. In general, a control animal tended preferably to stay in the dark compartment where it felt better protected from an unusual enviromental situation which put it in a state of anxiety. In this experimental model ( see the reference cited above), a compound having anxiolytic activity decreased the % of movements into the dark in comparison with the total movements, increased the movements between the two light-dark compartments, and increased the % of the total time time spent in the light. The results obtained are given in Table 5 below in which the activities obtained with the compound 1 (the rectus series ) and its enantiomer 2 (sinister) tested in comparison with diazepam and the CCK-B antagonist L365-260.

[3] = target: T1, central CCK-B receptors (guinea pig cortical membrane) (Cavia porcellus, UniProt H0VZC5); assay: Inhibition of binding of (3-H)[N-methyl-N-leucine]CCK-8 to guinea pig cortical membranes (anti-CCK-B)
T1 construct: Cerebral cortices of white male guinea pigs were therefore used; from tissue; host or cells: guinea pig cerebral cortex membranes
T1 sequence (H0VZC5 1-426): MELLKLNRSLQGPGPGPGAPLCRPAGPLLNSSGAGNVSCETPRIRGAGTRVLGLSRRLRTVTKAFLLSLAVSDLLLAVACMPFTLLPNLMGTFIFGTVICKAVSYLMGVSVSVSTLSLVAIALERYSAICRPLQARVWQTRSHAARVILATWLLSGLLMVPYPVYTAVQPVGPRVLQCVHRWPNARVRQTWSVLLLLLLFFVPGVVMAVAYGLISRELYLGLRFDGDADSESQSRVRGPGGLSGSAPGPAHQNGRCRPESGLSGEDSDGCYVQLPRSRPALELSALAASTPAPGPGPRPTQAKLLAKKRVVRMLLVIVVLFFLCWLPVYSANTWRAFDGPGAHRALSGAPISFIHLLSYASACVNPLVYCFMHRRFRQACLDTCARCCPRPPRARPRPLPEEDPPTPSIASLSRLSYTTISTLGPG
Description: Cerebral cortices of white male guinea pigs were therefore used, according to the method mentioned above, so as to obtain a membrane content/ml corresponding to about 300 mcg of proteins/mi. The membranes were incubated together with the radioactive tracer and the compounds under test for 150 minutes at 25° C. After the supernatant liquid had been discarded, the radioactivity associated with the pellet was determined with a liquid scintillator.

[4] = force of the contractions, five minutes contact, 37° C., read-out: IC50 (force), inhibition of the spontaneous motility of guinea-pig ureters in vitro
[5] = frequency of the contractions, five minutes contact, 37° C., read-out: IC50 (frequency), inhibition of the spontaneous motility of guinea-pig ureters in vitro
[6] = read-out: IC50 (force), inhibition of the spontaneous motility of guinea-pig ureters in vitro
[7] = read-out: IC50 (frequency), inhibition of the spontaneous motility of guinea-pig ureters in vitro

**Q.** Which IC50 [1, 4] does the source give for CCCCCN(CCCCC)C(=O)C(CCC(=O)NCCN(C)C)NC(=O)c1ccc(C)c(C)c1 (centres unmarked) [Compound 40] here?
**A.** The IC50 was 27 µg/mL (≈ 55.2 µM).

**Q.** And the IC50 [1, 5]?
**A.** The IC50 was 44 µg/mL (≈ 90 µM).

**Q.** With CCCCCN(CCCCC)C(=O)C(CCC(=O)NCCCN(C)C)NC(=O)c1ccc(C)c(C)c1 (centres unmarked) [Compound 41] as the molecule, how does the IC50 [1, 4] read?
**A.** Its IC50 is 20 µg/mL (≈ 39.8 µM).

**Q.** What about the IC50 [1, 5] of the same molecule?
**A.** The IC50 was 28 µg/mL (≈ 55.7 µM).

**Q.** For CCCCCN(CCCCC)C(=O)C(CCC(=O)NCCN(CC)CC)NC(=O)c1ccc(C)c(C)c1 (centres unmarked) [Compound 42], which IC50 [1, 4] is on record?
**A.** The IC50 was 18 µg/mL (≈ 34.8 µM).

**Q.** What about the IC50 [1, 5] of the same molecule?
**A.** The IC50 was 22 µg/mL (≈ 42.6 µM).

**Q.** Which results are given for CCCCCN(CCCCC)C(=O)[C@@H](CCC(=O)NCCN1CCOCC1)NC(=O)c1ccc(C)c(C)c1 [Compound 45]?
**A.** IC50 [1, 4]: 8 µg/mL (≈ 15.1 µM); IC50 [1, 5]: 6 µg/mL (≈ 11.3 µM)

**Q.** Which “activity on guinea-pig ureters (in words)” value [1] does the source give for CCCCCN(CCCCC)C(=O)[C@H](CCC(=O)NCCN1CCOCC1)NC(=O)c1ccc(C)c(C)c1 [Compound 46] here?
**A.** The value was “extremely active”.

**Q.** What about the IC50 [1, 4] of the same molecule?
**A.** The IC50 was 1.6 µg/mL (≈ 3.01 µM).

**Q.** And the IC50 [1, 5]?
**A.** Its IC50 is 1.5 µg/mL (≈ 2.83 µM).

**Q.** What about the “activity relative to Verapamil” value ([1]; guinea-pig ureters) of the same molecule?
**A.** The value was “about twice”.

**Q.** And the “times more active than Papaverine and Flavexate” value ([1]; guinea-pig ureters)?
**A.** Its value is “about 20 times”.

**Q.** Which IC50 [1, 4] does the source give for CCCCCN(CCCCC)C(=O)C(CCC(=O)NCCCN1CCOCC1)NC(=O)c1ccc(C)c(C)c1 (centres unmarked) [Compound 47] here?
**A.** Its IC50 is 12 µg/mL (≈ 22 µM).

**Q.** And the IC50 [1, 5]?
**A.** Its IC50 is 15 µg/mL (≈ 27.5 µM).

**Q.** CCCCCN(CCCCC)C(=O)C(CCC(=O)NCCCN1CCN(Cc2ccccc2)CC1)NC(=O)c1ccc(C)c(C)c1 (centres unmarked) [Compound 51] was tested. Which IC50 [1, 4] did it give?
**A.** The IC50 was 100 µg/mL (≈ 158 µM).

**Q.** And the IC50 [1, 5]?
**A.** Its IC50 is 100 µg/mL (≈ 158 µM).

**Q.** For CCCCCN(CCCCC)C(=O)C(CCC(=O)NCC1CCCN1CC)NC(=O)c1ccc(C)c(C)c1 (centres unmarked) [Compound 58], which IC50 [1, 4] is on record?
**A.** Its IC50 is 14 µg/mL (≈ 26.5 µM).

**Q.** What about the IC50 [1, 5] of the same molecule?
**A.** The IC50 was 19 µg/mL (≈ 35.9 µM).

**Q.** CCCCCN(CCCOC)C(=O)C(CCC(=O)NCCN1CCOCC1)NC(=O)c1ccc(C)c(C)c1 (centres unmarked) [Compound 64] was tested. Which IC50 [1, 4] did it give?
**A.** The IC50 was 59 µg/mL (≈ 111 µM).

**Q.** What does the source list for Cc1cccc(NC(=O)N[C@@H]2N=C(c3ccccc3)c3ccccc3N(C)C2=O)c1 [Compound L-365-260, reference compound]?
**A.** LIGHT TIME (%) TOTAL TIME ([2]; 0.01 mg/kg IP): 27.0%; LIGHT TIME (%) TOTAL TIME: % EFF.VS CONTROL ([2]; 0.01 mg/kg IP): 0%; LIGHT-DARK MOVEMENTS ([2]; 0.01 mg/kg IP): 14.2; LIGHT-DARK MOVEMENTS: % EFF. VS CONTROL ([2]; 0.01 mg/kg IP): -12%; MOV. DARK (%) TOTAL MOV. ([2]; 0.01 mg/kg IP): 57%; MOV. DARK (%) TOTAL MOV.: % EFF. VS CONTROL ([2]; 0.01 mg/kg IP): 12%; TOTAL MOV. ([2]; 0.01 mg/kg IP): 417; LIGHT TIME (%) TOTAL TIME ([2]; 0.1 mg/kg IP): 31.8%; LIGHT TIME (%) TOTAL TIME: % EFF.VS CONTROL ([2]; 0.1 mg/kg IP): 18%; LIGHT-DARK MOVEMENTS ([2]; 0.1 mg/kg IP): 13.3; LIGHT-DARK MOVEMENTS: % EFF. VS CONTROL ([2]; 0.1 mg/kg IP): -18%; MOV. DARK (%) TOTAL MOV. ([2]; 0.1 mg/kg IP): 54%; MOV. DARK (%) TOTAL MOV.: % EFF. VS CONTROL ([2]; 0.1 mg/kg IP): 18%; TOTAL MOV. ([2]; 0.1 mg/kg IP): 446; anxiolytic activity in the Black and White Box test (in words) [2]: active at a dose of 0.1 mg/kg but only for the parameter which relates to the increase in the time spent in the light

**Q.** With CN1C(=O)CN=C(c2ccccc2)c2cc(Cl)ccc21 [DIAZEPAM, diazepam, reference compound] as the molecule, how does the “LIGHT TIME (%) TOTAL TIME” value ([2]; 1 mg/kg IP) read?
**A.** Its value is 29.3%.

**Q.** And the “LIGHT TIME (%) TOTAL TIME: % EFF.VS CONTROL” value ([2]; 1 mg/kg IP)?
**A.** Its value is 19%.

**Q.** And the “LIGHT-DARK MOVEMENTS” value ([2]; 1 mg/kg IP)?
**A.** Its value is 19.9.

**Q.** And the “LIGHT-DARK MOVEMENTS: % EFF. VS CONTROL” value ([2]; 1 mg/kg IP)?
**A.** Its value is “+37.2%”.

**Q.** What about the “MOV. DARK (%) TOTAL MOV.” value ([2]; 1 mg/kg IP) of the same molecule?
**A.** Its value is 53%.

**Q.** And the “MOV. DARK (%) TOTAL MOV.: % EFF. VS CONTROL” value ([2]; 1 mg/kg IP)?
**A.** Its value is -5%.

**Q.** And the “TOTAL MOV.” value ([2]; 1 mg/kg IP)?
**A.** Its value is 508.

**Q.** And the “LIGHT TIME (%) TOTAL TIME” value ([2]; 3 mg/kg IP)?
**A.** Its value is 33.6%.

**Q.** And the “LIGHT TIME (%) TOTAL TIME: % EFF.VS CONTROL” value ([2]; 3 mg/kg IP)?
**A.** The value was 36.7%.

**Q.** What about the “LIGHT-DARK MOVEMENTS” value ([2]; 3 mg/kg IP) of the same molecule?
**A.** The value was 22.3.

**Q.** And the “LIGHT-DARK MOVEMENTS: % EFF. VS CONTROL” value ([2]; 3 mg/kg IP)?
**A.** Its value is “+53.8%”.

**Q.** What about the “MOV. DARK (%) TOTAL MOV.” value ([2]; 3 mg/kg IP) of the same molecule?
**A.** The value was 52%.

**Q.** What about the “MOV. DARK (%) TOTAL MOV.: % EFF. VS CONTROL” value ([2]; 3 mg/kg IP) of the same molecule?
**A.** The value was -7%.

**Q.** What about the “TOTAL MOV.” value ([2]; 3 mg/kg IP) of the same molecule?
**A.** Its value is 539.

**Q.** What about the “anxiolytic activity in the Black and White Box test (in words)” value [2] of the same molecule?
**A.** The value was “active in a dose-dependent manner for all the parameters tested”.

**Q.** How did the IC50 [1, 4] turn out when Cc1c(-c2ccccc2)oc2c(C(=O)OCCN3CCCCC3)cccc2c1=O [Flavoxate, reference compound] was run?
**A.** Its IC50 is 29 µg/mL (≈ 74.1 µM).

**Q.** How did the IC50 [1, 6] turn out when COc1ccc(Cc2nccc3cc(OC)c(OC)cc23)cc1OC [Papaverine, reference compound] was run?
**A.** The IC50 was 23 µg/mL (≈ 67.8 µM).

**Q.** What about the IC50 [1, 7] of the same molecule?
**A.** Its IC50 is 27 µg/mL (≈ 79.6 µM).

**Q.** What does the source list for COc1ccc(CCN(C)CCCC(C#N)(c2ccc(OC)c(OC)c2)C(C)C)cc1OC (centres unmarked) [Verapamil, reference compound]?
**A.** IC50 [1, 6]: 3 µg/mL (≈ 6.6 µM); IC50 [1, 7]: 2.2 µg/mL (≈ 4.84 µM)

**Q.** Which IC50 [3] does the source give for CSCC[C@H](NC(=O)[C@H](Cc1c[nH]c2ccccc12)NC(=O)CCNC(=O)OC(C)(C)C)C(=O)N[C@@H](CC(=O)O)C(=O)N[C@@H](Cc1ccccc1)C(N)=O [pentagastrin, reference compound] here?
**A.** The IC50 was 3 nM.
